ChEMBL document CHEMBL1139735, “Inhibitors of unactivated p38 MAP kinase” (Bioorg Med Chem Lett, 2006)
Activity calls are given as the source filed them. No cut-off for these calls is given here.

Key:
[1] = target: T1, MAP kinase p38 (Homo sapiens, UniProt O15264+Q15759+Q16539+P53778); assay: Inhibition of p38 phosphorylation; assay type: protein assay
[2] = test system: PBMC; assay: Inhibition of TNF production in human PBMC; assay type: functional, cell-based
[3] = test system: Mus musculus; assay: Inhibition of LPS-induced TNF production in mouse at 10 mg/kg after 2 hrs; assay type: functional
[4] = test system: Mus musculus; assay: Toxicity in mouse at 200 mg/kg; assay type: organism-based; design: dose 200 mg/kg; details: in vivo
[5] = Bioavailability in mouse; assay type: ADME, organism-based; details: in vivo
[6] = Bioavailability in rat; assay type: ADME, organism-based; details: in vivo
[7] = Bioavailability in dog; assay type: ADME, organism-based, Canis lupus familiaris; details: in vivo
[8] = Bioavailability in monkey; assay type: ADME, organism-based, Macaca mulatta; details: rhesus monkey, in vivo
[9] = test system: Mus musculus; assay: Inhibition of TNF production in mouse at 10 mg/kg; assay type: functional
[10] = target: T1, MAP kinase p38; assay: Inhibition of p38 kinase; assay type: protein assay
[11] = test system: Mus musculus; assay: Inhibition of TNF production in orally dosed mouse model; assay type: functional; details: po
[12] = target: T1, MAP kinase p38; assay: Inhibition of activated p38 kinase up to 10 uM; assay type: protein assay
[13] = target: T2, 5-hydroxytryptamine receptor 3A (Homo sapiens, UniProt P46098); assay: Inhibition of 5HT3 receptor
T2 sequence (P46098 whole entry): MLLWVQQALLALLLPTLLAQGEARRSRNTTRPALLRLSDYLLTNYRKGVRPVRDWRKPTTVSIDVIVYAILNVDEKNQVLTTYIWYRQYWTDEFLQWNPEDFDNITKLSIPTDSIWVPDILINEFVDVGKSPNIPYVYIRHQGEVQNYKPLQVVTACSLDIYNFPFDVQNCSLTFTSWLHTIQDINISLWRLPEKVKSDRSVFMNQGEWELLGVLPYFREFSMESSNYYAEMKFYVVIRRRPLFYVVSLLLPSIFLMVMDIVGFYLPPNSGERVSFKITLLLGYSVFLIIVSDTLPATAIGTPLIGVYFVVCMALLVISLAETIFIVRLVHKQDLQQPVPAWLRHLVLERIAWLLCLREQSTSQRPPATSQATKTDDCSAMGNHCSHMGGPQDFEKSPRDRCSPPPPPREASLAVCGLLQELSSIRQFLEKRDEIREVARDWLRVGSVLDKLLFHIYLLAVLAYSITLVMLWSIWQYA

[14] = target: Mitogen-activated protein kinase 14 (Homo sapiens, UniProt Q16539); assay: Binding affinity to p38alpha
[15] = target: T3, Cytochrome P450 1A2 (Homo sapiens, UniProt P05177); assay: Inhibition of CYP1A2 below 15 uM; assay type: ADME
T3 sequence (P05177 whole entry): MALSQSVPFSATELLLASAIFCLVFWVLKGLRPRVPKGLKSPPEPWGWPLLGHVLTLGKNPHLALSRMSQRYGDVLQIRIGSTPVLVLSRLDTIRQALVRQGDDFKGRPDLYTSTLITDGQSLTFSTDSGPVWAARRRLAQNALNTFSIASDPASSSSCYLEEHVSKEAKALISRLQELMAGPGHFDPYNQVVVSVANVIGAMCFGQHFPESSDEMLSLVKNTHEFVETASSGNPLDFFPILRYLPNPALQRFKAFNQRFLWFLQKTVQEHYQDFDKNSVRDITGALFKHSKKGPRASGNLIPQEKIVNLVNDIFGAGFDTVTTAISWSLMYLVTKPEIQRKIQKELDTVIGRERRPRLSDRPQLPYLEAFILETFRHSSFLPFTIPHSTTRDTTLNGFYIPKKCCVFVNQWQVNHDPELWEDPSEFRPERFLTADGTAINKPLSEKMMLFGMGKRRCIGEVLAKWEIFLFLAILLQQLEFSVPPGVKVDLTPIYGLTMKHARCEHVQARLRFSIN

[16] = target: Cytochrome P450 2D6 (Homo sapiens, UniProt P10635); assay: Inhibition of CYP2D6 below 15 uM; assay type: ADME
[17] = target: Cytochrome P450 2C9 (Homo sapiens, UniProt P11712); assay: Inhibition of CYP2C9; assay type: ADME
[18] = target: Cytochrome P450 3A4 (Homo sapiens, UniProt P08684); assay: Inhibition of CYP3A4 below 15 uM; assay type: ADME
[19] = target: Cytochrome P450 2C19 (Homo sapiens, UniProt P33261); assay: Inhibition of CYP2C19; assay type: ADME
[20] = test system: Mus musculus; assay: Inhibition of collagen-induced arthritis in mouse at 30 mg/kg, po; assay type: functional
[21] = test system: Rattus norvegicus; assay: Reduction of swelling in adjuvant-induced arthritis rat at 30 mg/kg, po; assay type: functional; design: scale not given: the % may be the effect or the level left

Mitogen-activated protein kinase 14, sequence (Q16539 whole entry): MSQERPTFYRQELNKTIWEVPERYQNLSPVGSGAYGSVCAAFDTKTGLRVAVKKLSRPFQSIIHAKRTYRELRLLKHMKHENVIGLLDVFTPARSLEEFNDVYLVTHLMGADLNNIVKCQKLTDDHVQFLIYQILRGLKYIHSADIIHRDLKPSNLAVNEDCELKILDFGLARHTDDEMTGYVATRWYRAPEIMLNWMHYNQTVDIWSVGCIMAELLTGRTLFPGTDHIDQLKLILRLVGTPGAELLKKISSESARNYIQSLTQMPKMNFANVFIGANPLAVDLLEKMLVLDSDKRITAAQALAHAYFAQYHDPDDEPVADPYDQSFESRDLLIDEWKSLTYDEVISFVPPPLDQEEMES
Cytochrome P450 2C9, sequence (P11712 whole entry): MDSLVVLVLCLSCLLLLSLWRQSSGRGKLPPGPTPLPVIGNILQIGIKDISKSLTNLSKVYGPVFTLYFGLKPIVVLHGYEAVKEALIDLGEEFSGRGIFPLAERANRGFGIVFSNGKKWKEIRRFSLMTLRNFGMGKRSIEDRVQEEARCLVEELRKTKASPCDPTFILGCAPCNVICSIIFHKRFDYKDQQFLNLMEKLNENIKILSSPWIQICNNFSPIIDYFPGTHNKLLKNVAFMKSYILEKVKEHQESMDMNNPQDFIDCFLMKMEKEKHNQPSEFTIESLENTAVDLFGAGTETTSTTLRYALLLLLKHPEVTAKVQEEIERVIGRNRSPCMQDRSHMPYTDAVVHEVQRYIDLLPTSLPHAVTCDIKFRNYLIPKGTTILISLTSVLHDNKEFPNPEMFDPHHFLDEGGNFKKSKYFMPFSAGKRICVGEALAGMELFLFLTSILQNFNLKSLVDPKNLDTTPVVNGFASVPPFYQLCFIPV
Cytochrome P450 2D6, sequence (P10635 whole entry): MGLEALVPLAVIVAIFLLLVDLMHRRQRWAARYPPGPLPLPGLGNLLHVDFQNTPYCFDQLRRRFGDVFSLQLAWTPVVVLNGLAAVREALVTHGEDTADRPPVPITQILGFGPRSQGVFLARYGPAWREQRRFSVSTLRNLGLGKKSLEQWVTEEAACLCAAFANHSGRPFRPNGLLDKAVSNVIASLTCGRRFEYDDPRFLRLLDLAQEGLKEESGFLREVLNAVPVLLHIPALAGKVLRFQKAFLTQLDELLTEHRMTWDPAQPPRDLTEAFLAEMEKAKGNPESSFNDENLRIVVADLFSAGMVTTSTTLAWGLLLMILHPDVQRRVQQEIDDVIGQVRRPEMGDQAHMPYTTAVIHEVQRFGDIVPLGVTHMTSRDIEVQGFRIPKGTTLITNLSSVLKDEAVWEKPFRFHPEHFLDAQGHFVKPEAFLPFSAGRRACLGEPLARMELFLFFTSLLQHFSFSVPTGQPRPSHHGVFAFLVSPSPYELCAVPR
Cytochrome P450 2C19, sequence (P33261 whole entry): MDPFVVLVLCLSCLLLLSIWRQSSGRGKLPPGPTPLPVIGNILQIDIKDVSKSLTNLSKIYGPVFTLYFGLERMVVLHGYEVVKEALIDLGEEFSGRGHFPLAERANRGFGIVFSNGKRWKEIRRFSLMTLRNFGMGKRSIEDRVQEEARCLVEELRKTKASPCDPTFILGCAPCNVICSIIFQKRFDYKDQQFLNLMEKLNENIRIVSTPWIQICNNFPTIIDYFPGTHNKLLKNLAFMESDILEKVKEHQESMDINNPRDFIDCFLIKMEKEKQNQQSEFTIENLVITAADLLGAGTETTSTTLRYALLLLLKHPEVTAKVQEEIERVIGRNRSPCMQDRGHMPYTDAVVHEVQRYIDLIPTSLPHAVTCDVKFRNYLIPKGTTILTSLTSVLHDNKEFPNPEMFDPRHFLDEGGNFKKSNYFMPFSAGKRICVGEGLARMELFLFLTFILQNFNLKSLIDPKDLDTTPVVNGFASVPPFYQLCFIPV
Cytochrome P450 3A4, sequence (P08684 whole entry): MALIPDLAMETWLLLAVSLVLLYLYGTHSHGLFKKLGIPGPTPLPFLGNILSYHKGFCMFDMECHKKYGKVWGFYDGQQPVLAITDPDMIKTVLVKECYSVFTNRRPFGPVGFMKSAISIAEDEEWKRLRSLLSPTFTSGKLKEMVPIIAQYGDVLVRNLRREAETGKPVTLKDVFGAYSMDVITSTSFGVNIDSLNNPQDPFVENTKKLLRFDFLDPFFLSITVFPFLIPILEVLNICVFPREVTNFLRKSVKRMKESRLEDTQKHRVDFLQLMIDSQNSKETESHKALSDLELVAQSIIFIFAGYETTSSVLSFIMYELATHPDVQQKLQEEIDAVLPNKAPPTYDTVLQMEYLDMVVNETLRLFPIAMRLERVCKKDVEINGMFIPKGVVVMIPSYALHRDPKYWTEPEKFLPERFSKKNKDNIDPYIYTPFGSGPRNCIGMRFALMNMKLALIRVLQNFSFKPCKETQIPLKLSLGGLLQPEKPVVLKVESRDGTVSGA

CC(=O)N1CCN(c2c(-c3ccncc3)c(-c3ccc(F)cc3)c(C#N)n2C)CC1 [listing 1 of 2 here]
Activity [1]: Active

CC(=O)c1c(-c2ccc(F)cc2)c(-c2ccncc2)c(N2CCN(C)CC2)n1C
IC50 [2]: 529 nM | inhibition in vivo at 10 mg/kg [3]: 40%

COC(=O)c1c(-c2ccc(F)cc2)c(-c2ccncc2)c(NCCN2CCCCC2)n1C
IC50 [2]: 92 nM

CCN1CCN(c2c(-c3ccncc3)c(-c3ccc(F)cc3)c(C(=O)OC)n2C)CC1
IC50 [2]: 135 nM | Activity [4]: Non-toxic

COC(=O)c1c(-c2ccc(F)cc2)c(-c2ccncc2)c(NC2CCNCC2)n1C
IC50 [2]: 315 nM

CN1CCN(c2c(-c3ccncc3)c(-c3ccc(F)cc3)c(C#N)n2C)CC1
IC50 [2]: 80 nM

CC(=O)N1CCN(c2c(-c3ccncc3)c(-c3ccc(F)cc3)c(C#N)n2C)CC1.Cl
bioavailability [5]: 70% | bioavailability [6]: 70% | bioavailability [7]: 70% | bioavailability [8]: 70%

COC(=O)c1c(-c2ccc(F)cc2)c(-c2ccncc2)c(C2=CCNCC2)n1C
IC50 [2]: 72 nM | Activity [4]: Non-toxic

CCOC(=O)c1c(-c2cc(F)cc(F)c2)c(-c2ccncc2)c(N2CCNCC2)n1C
IC50 [2]: 93 nM | inhibition in vivo at 10 mg/kg [9]: 79% | IC50 [10]: > 10000 nM

Cn1c(C(=O)c2ccccc2)c(-c2ccc(F)cc2)c(-c2ccncc2)c1N1CCNCC1
IC50 [2]: 660 nM

COC(=O)c1c(-c2ccc(F)cc2)c(-c2ccncc2)c(N2CCOCC2)n1C
IC50 [2]: 47 nM

CCCN1CCN(c2c(-c3ccncc3)c(-c3ccc(F)cc3)c(C(=O)OC)n2C)CC1
IC50 [2]: 901 nM

Cn1c(C#N)c(-c2ccc(F)cc2)c(-c2ccncc2)c1N1CCNCC1
IC50 [2]: 18 nM | ED50 [11]: 5 mg/kg

CC(=O)c1c(-c2ccc(F)cc2)c(-c2ccncc2)c(N2CCN(C(C)=O)CC2)n1C
IC50 [2]: 43 nM | Activity [4]: Non-toxic

CC(=O)C(=O)c1c(-c2ccc(F)cc2)c(-c2ccncc2)c(N2CCNCC2)n1C
IC50 [2]: 28 nM | inhibition in vivo at 10 mg/kg [9]: 52%

Cn1cc(-c2ccc(F)cc2)c(-c2ccncc2)c1N1CCNCC1
IC50 [2]: 15 nM

COC(=O)c1c(-c2ccc(F)cc2)c(-c2ccncc2)c(N2CCN(C(C)C)CC2)n1C
IC50 [2]: 1980 nM

COC(=O)c1c(-c2ccc(F)cc2)c(-c2ccncc2)c(N2CCNCC2)n1C
IC50 [2]: 33 nM | ED50 [11]: 7.5 mg/kg | Activity [12]: inactive | IC50 [13]: 275 nM | Activity [4]: Toxic

COC(=O)c1c(-c2ccc(F)cc2)c(-c2ccncc2)c(N2CCCC2)n1C
IC50 [2]: 17 nM

CC(=O)c1c(-c2ccc(F)cc2)c(-c2ccncc2)c(N2CCNCC2)n1C
IC50 [2]: 40 nM | Activity [4]: Non-toxic

CC(C)NC(=O)c1c(-c2ccc(F)cc2)c(-c2ccncc2)c(N2CCNCC2)n1C
IC50 [2]: 10000 nM

CCOC(=O)c1c(-c2ccc(C)cc2)c(-c2ccncc2)c(N2CCNCC2)n1C
IC50 [2]: 60 nM | inhibition in vivo at 10 mg/kg [9]: 79% | IC50 [10]: 3939 nM

CCOC(=O)c1c(-c2cccc(C(F)(F)F)c2)c(-c2ccncc2)c(N2CCNCC2)n1C
IC50 [2]: 21 nM | IC50 [10]: > 10000 nM

CCC(=O)c1c(-c2ccc(F)cc2)c(-c2ccncc2)c(N2CCNCC2)n1C
IC50 [2]: 67 nM

COC(=O)c1c(-c2ccc(F)cc2)c(-c2ccncc2)c(NCCN(C)C)n1C
IC50 [2]: 98 nM

CNC(=O)c1c(-c2ccc(F)cc2)c(-c2ccncc2)c(N2CCNCC2)n1C
IC50 [2]: 779 nM

CC(=O)N1CCN(c2c(-c3ccncc3)c(-c3ccc(F)cc3)c(C#N)n2C)CC1 [listing 2 of 2 here]
IC50 [2]: 123 nM | ED50 [11]: 0.5 mg/kg | Activity [4]: Non-toxic | IC50 [10]: 2000 nM | Kd [14]: 100 nM | Activity [15]: Not Active | Activity [16]: Not Active | IC50 [17]: 4000 nM | Activity [18]: Not Active | IC50 [19]: 8000 nM | inhibition in vivo at 30 mg/kg [20]: 50% | Activity [21]: 91%

COC(=O)c1c(-c2ccc(F)cc2)c(-c2ccncc2)c(N(C)CCN2CCOCC2)n1C
IC50 [2]: 38 nM | ED50 [11]: 3 mg/kg | inhibition in vivo at 10 mg/kg [9]: 78%

COC(=O)c1c(-c2ccc(F)cc2)c(-c2ccncc2)c(N2CCN(C)CC2)n1C
IC50 [2]: 95 nM | Activity [4]: Non-toxic

COC(=O)c1c(-c2ccc(F)cc2)c(-c2ccncc2)c(NCCN2CCOCC2)n1C
IC50 [2]: 50 nM
